Data: US8114991B2, “Amino-1,3,5-triazines N-substituted with chiral bicyclic radicals, process for their preparation, compositions thereof, and their use as herbicides and plant growth regulators” (Bayer Cropscience AG, priority 2003, dated 2012)

Legend:
[1] = system: harmful plants such as Stellaria media, Lolium multiforum, Amaranthus retroflexus, Sinapis alba, Avena sativa and Setaria viridis; test: Pre-emergence effect on weeds (greenhouse pot test); format: in vivo; details: application rate of 1 kg or less of active ingredient per hectare; scored after 3 to 4 weeks by comparison with untreated controls
Procedure, shortened: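 Seeds or rhizome pieces sown in sandy loam; test compounds (wettable powder or emulsion concentrate) applied pre-emergence to soil surface as aqueous suspension/emulsion at various dosages, 600 to 800 l water/ha. Greenhouse; plant/emergence damage scored visually after 3 to 4 weeks versus untreated controls.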

[2] = system: harmful plants such as Sinapis alba, Echinochloa crus-galli, Lolium multiflorum, Stellaria media, Cyperus iria, Amaranthus retroflexus, Setaria viridis, Avena …; test: Post-emergence effect on weeds (greenhouse pot test); format: in vivo; details: application rate of 2 kg or less of active ingredient per hectare; treated in the three-leaf stage; scored after approx. 3 to 4 weeks by comparison with untreated controls

SMILES	pre-emergence control of harmful plants (plant or emergence damage scored visually) [1]	melting point [°C]	herbicidal post-emergence activity against harmful plants (scored visually) [2]
C[C@@H](F)c1nc(N)nc(N[C@H]2c3ccccc3C[C@@H]2C)n1 [Compound 2.1, 2-Amino-4-[(1R,2S)-2-methyl-1-indanylamino]-6-[(1R)-1-fluoroethyl]-1,3,5-triazine]	very good pre-emergence control	146 to 150	very good herbicidal post-emergence activity
C[C@@H](F)c1nc(N)nc(N[C@@H]2CCOc3ccccc32)n1 [Compound 1.20, 2-Amino-4-[(4R)4-chromanylamino]-6-[(1R)-1-fluoroethyl]-1,3,5-triazine]	very good pre-emergence control	110 to 112	very good herbicidal post-emergence activity
CC(C)(F)c1nc(N)nc(N[C@@H]2CCc3ccccc32)n1 [Compound 8.195]	very good pre-emergence control		very good herbicidal post-emergence activity
Cc1nc(N)nc(N[C@@H]2CCc3ccccc32)n1 [Compound 8.1, 2-Amino-4-[(1R)-1-indanylamino]-6-methyl-1,3,5-triazine]	very good pre-emergence control	94 to 96	very good herbicidal post-emergence activity
Cc1ccc2c(c1)[C@H](Nc1nc(N)nc([C@H](C)F)n1)CC2 [Compound 3.2]	very good pre-emergence control		very good herbicidal post-emergence activity
C[C@H]1Cc2ccccc2[C@@H]1Nc1nc(N)nc(C(C)(C)F)n1 [Compound 7.228]	very good pre-emergence control		very good herbicidal post-emergence activity
CCc1ccc2c(c1)[C@H](Nc1nc(N)nc(C(C)C)n1)CC2 [Compound 8.247]	very good pre-emergence control		very good herbicidal post-emergence activity
